Where a name gives a salt, the structure may show the parent alone.

A word on the melting point: it is the temperature of the solid-liquid transition. The compound `O=c1[nH]c2c(O)cccc2c(=O)n1CCCN1CC=C(c2ccc(Cl)cc2)CC1` (as salt: hydrobromid) showed a melting point of 284 to 286 °C.

As for `O=c1[nH]c2cc(F)ccc2c(=O)n1CCCN1CC=C(c2ccc(Cl)cc2)CC1` (as salt: maleate), the melting point lay within 197 to 198 °C.

`O=c1[nH]c2cccc(Cl)c2c(=O)n1CCCN1CC=C(c2ccc(Cl)cc2)CC1` (as salt: maleate) yielded a melting point of 190 to 194 °C. The compound `O=c1[nH]c2ccc(Cl)cc2c(=O)n1CCCN1CC=C(c2ccc(Cl)cc2)CC1` (as salt: maleate) displayed a melting point of 197 to 198 °C.

On to `O=c1[nH]c2cc(Cl)ccc2c(=O)n1CCCN1CC=C(c2ccc(Cl)cc2)CC1` (as salt: maleate), for which the melting point is 225 to 227 °C. As for `O=c1[nH]c2c(Cl)cc(Cl)cc2c(=O)n1CCCN1CC=C(c2ccc(Cl)cc2)CC1` (as salt: maleate), the figure is 197 to 199 °C; as for `Cc1cccc2[nH]c(=O)n(CCCN3CC=C(c4ccc(Cl)cc4)CC3)c(=O)c12` (as salt: maleate), 175 to 178 °C; as for `Cc1ccc2c(=O)n(CCCN3CC=C(c4ccc(Cl)cc4)CC3)c(=O)[nH]c2c1` (as salt: maleate), 199 to 201 °C. To `Cc1cccc2c(=O)n(CCCN3CC=C(c4ccc(Cl)cc4)CC3)c(=O)[nH]c12` (as salt: maleate) belongs 215 to 217 °C; to `Cc1ccc(C)c2c(=O)n(CCCN3CC=C(c4ccc(Cl)cc4)CC3)c(=O)[nH]c12` (as salt: maleate), 212 to 220 °C; to `Cc1c(Cl)ccc2c(=O)n(CCCN3CC=C(c4ccc(Cl)cc4)CC3)c(=O)[nH]c12` (as salt: maleate), 208 to 210 °C. As for `Cc1cc(Br)c2[nH]c(=O)n(CCCN3CC=C(c4ccc(Cl)cc4)CC3)c(=O)c2c1` (as salt: maleate), the figure is 212 to 214 °C. As for `O=c1[nH]c2ccc([N+](=O)[O-])cc2c(=O)n1CCCN1CC=C(c2ccc(Cl)cc2)CC1` (as salt: maleate), the melting point was 205 to 207 °C. To `O=c1[nH]c2cc([N+](=O)[O-])ccc2c(=O)n1CCCN1CC=C(c2ccc(Cl)cc2)CC1` (as salt: maleate) belongs 210 to 212 °C; to `Cc1ccc(C2=CCN(CCCn3c(=O)[nH]c4cccc(C)c4c3=O)CC2)cc1` (as salt: maleate), 165 to 170 °C; to `O=c1[nH]c2c(Cl)cccc2c(=O)n1CCCN1CC=C(c2cccc(C(F)(F)F)c2)CC1` (as salt: maleate), 205 to 210 °C. In the case of `Cc1cccc2[nH]c(=O)n(CCCN3CC=C(c4cccc(C(F)(F)F)c4)CC3)c(=O)c12` (as salt: maleate), the melting point is 158 to 160 °C.

The values are drawn from patent US6521630B1, “Tetrahydroquinazoline-2,4-diones and therapeutic uses thereof” (Pfizer Inc., priority 1999, dated 2003).
